Measured values as given in patent US10085955B2, “Methods and compositions for treatment of demyelinating diseases” (Pathologica LLC, priority 2013, dated 2018).

Test system: collagen-induced arthritis (CIA) model
Assay: Murine collagen-induced arthritis
Assay type: in vivo, DBA/1 mice
Settings: mice, 25 mg/kg PO BID
Source text: The collagen-induced arthritis (CIA) model is considered a suitable model for studying potential drugs active in human arthritis because of the many immunological and pathological similarities to human rheumatoid arthritis (RA), the involvement of localized major histocompatibility, […] class-II-restricted T helper lymphocyte activation, and the similarity of histological lesions. See, e.g., Rosloniec E F et al., “Collagen-Induced Arthritis,” Current Protocols in Immunology, Unit 15.5 (1993). See also the model using a monoclonal antibody to CD18 and VLA-4 integrins described in Issekutz, A. C. et al., Immunology (1996) 88:569. […]
Data. […] Edema is measured on days 18-20, 22-27, and 29-34. Inflammation is assessed by infiltration of inflammatory cells and edema. Post-euthanasia, terminal blood draws are collected, heparinized, and frozen at −70° C. until analyzed for cytokines such as osteopontin, TNFalpha, IL-1, CRP, MCP1, MIP-lbeta, RANTES, IFNgamma, TGFbeta, IP-10, IL-17, and MMP9. […] Bone resorption is quantified by presence of osteoclasts, defects in or loss of medullary trabecular or cortical bone. Cartilage damage is assessed by examining the severity and spread of chondrocyte loss and collagen disruption. […]
Statistical Analysis. Clinical data for paw scores (means for animal) are analyzed by determining the area under the dosing curve (AUC) for days 1-15. […]

CC(/C=N/NC(=N)N)=N\NC(=N)N [MGBG, 1,1′ [methylethanediylidene]dinitrilodiguanidine]
early phase of paw swelling/inflammation: did affect the early phase of paw swelling/inflammation | efficacy as a disease-modifying anti-rheumatic drug (DMARD): not efficacious
